target: T1, HCV polymerase (Hepatitis C virus genotype 1b, UniProt P26663); assay: HCV polymerase primer/template-directed transcription assay (32P-GTP incorporation, filter binding); format: biochemical; conditions: recombinant HCV polymerase; 30 minutes at 30° C.; concentration giving 50% inhibition of polymerase-directed transcription; read-out: IC50
T1 construct: 2.5 pmoles (0.15 μg) HCV polymerase protein in a final volume of 75 μL
Outline: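 Recombinant genotype 1b polymerase (30 nM) extended biotin-dG12 primer on poly(rC)300 template with 1 μM GTP plus α-32P-GTP, pH 7.2, 10 mM MgCl2, 30 min at 30° C, 1% DMSO final. Products captured on DE filters and counted. IC50 fitted from triplicate cpm, with a tight-binding correction applied below 200 nM.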

T1 sequence (P26663 2420-3010): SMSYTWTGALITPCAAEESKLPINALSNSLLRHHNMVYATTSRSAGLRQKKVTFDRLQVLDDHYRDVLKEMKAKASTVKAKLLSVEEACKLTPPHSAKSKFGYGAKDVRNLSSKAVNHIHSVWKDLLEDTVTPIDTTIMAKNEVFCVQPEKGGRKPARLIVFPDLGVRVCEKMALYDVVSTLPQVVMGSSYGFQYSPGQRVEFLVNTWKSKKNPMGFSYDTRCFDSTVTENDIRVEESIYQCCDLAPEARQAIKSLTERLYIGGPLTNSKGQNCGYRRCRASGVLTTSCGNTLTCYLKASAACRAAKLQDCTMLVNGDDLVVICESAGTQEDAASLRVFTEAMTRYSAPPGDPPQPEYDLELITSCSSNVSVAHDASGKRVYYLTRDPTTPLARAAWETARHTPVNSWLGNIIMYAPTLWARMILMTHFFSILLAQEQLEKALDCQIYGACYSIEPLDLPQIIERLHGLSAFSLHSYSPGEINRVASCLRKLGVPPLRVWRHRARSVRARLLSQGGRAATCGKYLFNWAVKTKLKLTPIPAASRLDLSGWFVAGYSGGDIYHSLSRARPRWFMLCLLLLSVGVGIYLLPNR

| SMILES | IC50 [nM] |
| --- | --- |
| CCc1cc(CCC2(C3CCCC3)CC(=O)CC(=O)O2)ccc1OCCOC (stereo not drawn) [A(184), 6-Cyclopentyl-6-{2-[3-ethyl-4-(2-methoxy-ethoxy)-phenyl]-ethyl}-dihydro-pyran-2,4-dione] | 520 |
| CCc1cc(CCC2(C3CCCC3)CC(O)=C(Cc3nc4ncc(C)cn4n3)C(=O)O2)ccc1OCCOC (stereo not drawn) [A(185), 6-Cyclopentyl-6-{2-[3-ethyl-4-(2-methoxy-ethoxy)-phenyl]-ethyl}-4-hydroxy-3-(6-methyl-[1,2,4]triazolo[1,5-a]pyrimidin-2-ylmethyl)-5,6-dihydro-pyran-2-one] | 8 |
| CCc1cc(O)cc(CCC2(C3CCCC3)CC(O)=C(Cc3nc4nc(C)cc(C)n4n3)C(=O)O2)c1 (stereo not drawn) [A(186), 6-Cyclopentyl-3-(5,7-dimethyl-[1,2,4]triazolo[1,5-a]pyrimidin-2-ylmethyl)-6-[2-(3-ethyl-5-hydroxy-phenyl)-ethyl]-4-hydroxy-5,6-dihydro-pyran-2-one] | 40 |
| CCc1cc(CCC2(C3CCCC3)CC(O)=C(Cc3nc4nc(C)cc(C)n4n3)C(=O)O2)c(O)cc1OC (stereo not drawn) [A(187), 6-Cyclopentyl-3-(5,7-dimethyl-[1,2,4]triazolo[1,5-a]pyrimidin-2-ylmethyl)-6-[2-(5-ethyl-2-hydroxy-4-methoxy-phenyl)-ethyl]-4-hydroxy-5,6-dihydro-pyran-2-one] | 4 |
| Cc1cc(C)n2nc(CC3=C(O)CC(CCc4ccc(C5(C#N)CCCC5)c(F)c4)(C4CCCC4)OC3=O)nc2n1 (stereo not drawn) [A(188), 1-(4-{2-[2-Cyclopentyl-5-(5,7-dimethyl-[1,2,4]triazolo[1,5-a]pyrimidin-2-ylmethyl)-4-hydroxy-6-oxo-3,6-dihydro-2H-pyran-2-yl]-ethyl}-2-fluoro-phenyl)-cyclopentanecarbonitrile] | 6 |
| N#CC1(c2ccc(CCC3(C4CCCC4)CC(=O)CC(=O)O3)cc2F)CCCC1 (stereo not drawn) [A(189), 1-{4-[2-(2-Cyclopentyl-4,6-dioxo-tetrahydro-pyran-2-yl)-ethyl]-2-fluoro-phenyl}-cyclopentanecarbonitrile] | 2900 |
| Cc1cnc2nc(CC3=C(O)CC(CCc4ccc(C5(C#N)CCCC5)c(F)c4)(C4CCCC4)OC3=O)nn2c1 (stereo not drawn) [A(190), 1-(4-{2-[2-Cyclopentyl-4-hydroxy-5-(6-methyl-[1,2,4]triazolo[1,5-a]pyrimidin-2-ylmethyl)-6-oxo-3,6-dihydro-2H-pyran-2-yl]-ethyl}-2-fluoro-phenyl)-cyclopentanecarbonitrile] | 11 |
| N#CC1(c2ccc(CCC3(C4CCCC4)CC(O)=C(Cc4nc5ncc(Cl)cn5n4)C(=O)O3)cc2F)CCCC1 (stereo not drawn) [A(191), 1-(4-{2-[5-(6-Chloro-[1,2,4]triazolo[1,5-a]pyrimidin-2-ylmethyl)-2-cyclopentyl-4-hydroxy-6-oxo-3,6-dihydro-2H-pyran-2-yl]-ethyl}-2-fluoro-phenyl)-cyclopentanecarbonitrile] | 17 |
| COCc1cc(CCC2(C3CCCC3)CC(O)=C(Cc3nc4nc(C)cc(C)n4n3)C(=O)O2)ccc1O (stereo not drawn) [A(192), 6-Cyclopentyl-3-(5,7-dimethyl-[1,2,4]triazolo[1,5-a]pyrimidin-2-ylmethyl)-4-hydroxy-6-[2-(4-hydroxy-3-methoxymethyl-phenyl)-ethyl]-5,6-dihydro-pyran-2-one] | 28 |
| Cc1cc(C)n2nc(CC3=C(O)CC(CCc4ccc(O)c(CO)c4)(C4CCCC4)OC3=O)nc2n1 (stereo not drawn) [A(193), 6-Cyclopentyl-3-(5,7-dimethyl-[1,2,4]triazolo[1,5-a]pyrimidin-2-ylmethyl)-4-hydroxy-6-[2-(4-hydroxy-3-hydroxymethyl-phenyl)-ethyl]-5,6-dihydro-pyran-2-one] | 98 |
| COCc1cc(CCC2(C3CCCC3)CC(=O)CC(=O)O2)ccc1O (stereo not drawn) [A(194), 6-Cyclopentyl-6-[2-(4-hydroxy-3-methoxymethyl-phenyl)-ethyl]-dihydro-pyran-2,4-dione] | 6900 |
| O=C1CC(=O)OC(CCc2ccc(O)c(CO)c2)(C2CCCC2)C1 (stereo not drawn) [A(195), 6-Cyclopentyl-6-[2-(4-hydroxy-3-hydroxymethyl-phenyl)-ethyl]-dihydro-pyran-2,4-dione] | 11000 |
